Patent US11472842B2 (Protagonist Therapeutics, Inc., priority 2015, dated 2022)
Starred links: 1 amine or outer side, 2 acyl side, 3 side chain; linkers in the order of their positions; H or OH if unused. Positions of bridges follow the written chain, without caps; N, C: chain ends. Residues, ends and D or L forms follow the SMILES beside them. Groups on a side chain read outwards from the residue. *: point of attachment. γGlu = O=C(O)[C@H](CCC(=O)[*:2])N[*:1]; Palmitoyl = CCCCCCCCCCCCCCCC(=O)*; Isovaleryl = CC(C)CC(=O)*

These molecules were tested against T1, human ferroportin (Homo sapiens, UniProt Q9NP59) (assay: Ferroportin internalization / degradation, HEK-GFP cell based assay (HEK293 cells stably expressing ferroportin-GFP, decrease in GFP fluorescence)). Conditions: Table 3 monomer analogues; ferroportin-GFP HEK293 cells, 18-24 h incubation; read-out: HEK-GFP cell based assay (potency EC50).
T1 construct: expressed in transfected cells
T1 sequence (Q9NP59 1-571): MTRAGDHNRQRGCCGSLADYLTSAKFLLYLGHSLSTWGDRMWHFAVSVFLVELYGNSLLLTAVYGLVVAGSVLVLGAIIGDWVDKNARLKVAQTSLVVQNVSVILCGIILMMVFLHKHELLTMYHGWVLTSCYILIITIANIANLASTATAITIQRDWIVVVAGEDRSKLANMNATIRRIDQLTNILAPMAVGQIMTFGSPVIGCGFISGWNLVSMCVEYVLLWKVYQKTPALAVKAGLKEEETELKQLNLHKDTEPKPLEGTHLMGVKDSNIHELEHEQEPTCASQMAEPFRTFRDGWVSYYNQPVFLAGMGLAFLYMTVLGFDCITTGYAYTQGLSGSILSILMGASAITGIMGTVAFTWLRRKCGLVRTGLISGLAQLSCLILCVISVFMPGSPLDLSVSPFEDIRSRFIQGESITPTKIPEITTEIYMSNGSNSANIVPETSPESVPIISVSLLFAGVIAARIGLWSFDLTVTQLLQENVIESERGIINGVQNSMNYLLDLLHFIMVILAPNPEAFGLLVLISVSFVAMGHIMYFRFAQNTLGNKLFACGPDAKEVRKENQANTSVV
Description: Peptide analogues were tested in vitro for induction of internalization of the human ferroportin protein. Following internalization, the […] are degraded. The assay measures a decrease in fluorescence of the receptor.
The cDNA encoding the human ferroportin (SLC40A1) was cloned from a cDNA clone from Origene (NM_014585). The DNA encoding the ferroportin was amplified by PCR using primers also encoding terminal restriction sites for subcloning, but without the termination codon. The ferroportin receptor was subcloned into a mammalian GFP expression vector containing a neomycin (G418) resistance marker in such that the reading frame of the ferroportin was fused in frame with the GFP protein. The fidelity of the DNA encoding the protein was confirmed by DNA sequencing. HEK293 cells were used for transfection of the ferroportin-GFP receptor expression plasmid. The cells were grown according to standard protocol in growth medium and transfected with the plasmids using Lipofectamine (manufacturer's protocol, Invitrogen). […] The cells were propagated and frozen in aliquots.
Compound was added to desired final concentration for at least 18 hours in the incubator. […] Compound was added to desired final concentration for at least 18 hours but no more than 24 hours in the incubator.
The EC50 of these reference compounds for ferroportin degradation was determined according to the activity assay described above. These peptides served as control standards.
These values were determined as described herein.
`CCCCCCCCCCCCCCCC(=O)N[C@@H](CCC(=O)NCCCC[C@@H]1NC(=O)[C@H](Cc2ccccc2)NC(=O)[C@H](CCCCN)NC(=O)[C@H]([C@@H](C)CC)NC(=O)[C@@H](NC(=O)[C@@H]2CCCN2C(=O)[C@H](Cc2ccccc2)NC(=O)[C@H](Cc2c[nH]cn2)NC(=O)[C@@H](NC(=O)[C@H](CC(=O)O)NC(=O)CC(C)C)[C@@H](C)O)CSSC[C@@H](C(N)=O)NC(=O)CNC(=O)[C@H](CCCCN)NC(=O)[C@H](CO)NC(=O)[C@H](CCCNC(=N)N)NC(=O)[C@@H]2CCCN2C1=O)C(=O)O` [Compound 9] showed a DC50 of 11 nM.
With `CCCCCCCCCCCCCCCC(=O)N[C@@H](CCC(=O)NCCCC[C@@H]1NC(=O)[C@H](Cc2ccccc2)NC(=O)[C@H](CCCCN)NC(=O)[C@H](CCCCN)NC(=O)[C@@H](NC(=O)[C@@H]2CCCN2C(=O)[C@H](Cc2ccccc2)NC(=O)[C@H](Cc2c[nH]cn2)NC(=O)[C@@H](NC(=O)[C@H](CC(=O)O)NC(=O)CC(C)C)[C@@H](C)O)CSSC[C@@H](C(=O)N[C@@H](CCCCN)C(N)=O)NC(=O)CNC(=O)[C@H](CCCCN)NC(=O)[C@H](CO)NC(=O)[C@H](CCCNC(=N)N)NC(=O)[C@@H]2CCCN2C1=O)C(=O)O` [Compound 11] (Isovaleryl-DTHFPCKKFK([γGlu-Palmitoyl])PRSKGCK-NH2; disulfide 6-16) the DC50 was 22 nM.
In the case of `CCCCCCCCCCCCCCCC(=O)N[C@@H](CCC(=O)NCCCC[C@@H]1NC(=O)[C@H](Cc2ccccc2)NC(=O)[C@H](CCCCN)NC(=O)[C@H]([C@@H](C)CC)NC(=O)[C@@H](NC(=O)[C@@H]2CCCN2C(=O)[C@@H](NC(=O)[C@H](Cc2c[nH]cn2)NC(=O)[C@@H](NC(=O)[C@H](CC(=O)O)NC(=O)CC(C)C)[C@@H](C)O)C(c2ccccc2)c2ccccc2)CSSC[C@@H](C(=O)N[C@@H](CCCCN)C(N)=O)NC(=O)CNC(=O)[C@H](CCCCN)NC(=O)[C@H](CO)NC(=O)[C@H](CCCNC(=N)N)NC(=O)[C@@H]2CCCN2C1=O)C(=O)O` [Compound 7, Isovaleric acid-DTH-[Dpa]-PCIKF-[Lys(IsoGlu-Palm)]-PRSKGCK-NH2], the DC50 is reported as 12 nM.
In the case of `CC[C@H](C)[C@@H]1NC(=O)[C@@H](NC(=O)[C@@H]2CCCN2C(=O)[C@H](Cc2ccccc2)NC(=O)[C@H](Cc2c[nH]cn2)NC(=O)[C@@H](NC(=O)[C@H](CC(=O)O)NC(=O)CC(C)C)[C@@H](C)O)CSSC[C@@H](C(=O)N[C@@H](CCCCN)C(N)=O)NC(=O)CNC(=O)[C@H](CCCCN)NC(=O)[C@H](CO)NC(=O)[C@H](CCCNC(=N)N)NC(=O)[C@@H]2CCCN2C(=O)[C@H](CCCCNC(=O)CC[C@H](NC(=O)CCCC[C@@H]2SC[C@@H]3NC(=O)N[C@@H]32)C(=O)O)NC(=O)[C@H](Cc2ccccc2)NC(=O)[C@H](CCCCN)NC1=O` [Compound 14], the DC50 is reported as 29 nM.
`CCCCCCCCCCCCCCCC(=O)NCCCC[C@@H]1NC(=O)[C@H](Cc2ccccc2)NC(=O)[C@H](CCCCN)NC(=O)[C@H]([C@@H](C)CC)NC(=O)[C@@H](NC(=O)[C@@H]2CCCN2C(=O)[C@H](Cc2ccccc2)NC(=O)[C@H](Cc2c[nH]cn2)NC(=O)[C@@H](NC(=O)[C@H](CC(=O)O)NC(=O)CC(C)C)[C@@H](C)O)CSSC[C@@H](C(=O)N[C@@H](CCCCN)C(N)=O)NC(=O)CNC(=O)[C@H](CCCCN)NC(=O)[C@H](CO)NC(=O)[C@H](CCCNC(=N)N)NC(=O)[C@@H]2CCCN2C1=O` [Compound 20] showed a DC50 of 19 nM.
`CCCCCCCCCCCCCCCC(=O)N[C@@H](CCC(=O)NCCCC[C@@H]1NC(=O)[C@H](Cc2ccccc2)NC(=O)[C@H](CCCCN)NC(=O)[C@H]([C@@H](C)CC)NC(=O)[C@@H](NC(=O)[C@@H]2CCCN2C(=O)[C@H](Cc2ccccc2)NC(=O)[C@H](Cc2c[nH]cn2)NC(=O)[C@@H](NC(=O)[C@H](CC(=O)O)NC(=O)CC(C)C)[C@@H](C)O)CSSC(C)(C)[C@@H](C(=O)N[C@@H](CCCCN)C(N)=O)NC(=O)CNC(=O)[C@H](CCCCN)NC(=O)[C@H](CO)NC(=O)[C@H](CCCNC(=N)N)NC(=O)[C@@H]2CCCN2C1=O)C(=O)O` [Compound 5] showed a DC50 of 13 nM.
In the case of `CCCCCCCCCCCCCCCC(=O)NCCCCCC(=O)NCCCC[C@@H]1NC(=O)[C@H](Cc2ccccc2)NC(=O)[C@H](CCCCN)NC(=O)[C@H]([C@@H](C)CC)NC(=O)[C@@H](NC(=O)[C@@H]2CCCN2C(=O)[C@H](Cc2ccccc2)NC(=O)[C@H](Cc2c[nH]cn2)NC(=O)[C@@H](NC(=O)[C@H](CC(=O)O)NC(=O)CC(C)C)[C@@H](C)O)CSSC[C@@H](C(=O)N[C@@H](CCCCN)C(N)=O)NC(=O)CN(C)C(=O)[C@H](CCCCN)NC(=O)[C@H](CO)NC(=O)[C@H](CCCNC(=N)N)NC(=O)[C@@H]2CCCN2C1=O` [Compound 24], the DC50 is reported as 10 nM.
Molecule `CCCCCCCCCCCCCCCC(=O)NCCCCCC(=O)N[C@@H](CCC(=O)NCCCC[C@@H]1NC(=O)[C@H]([C@@H](C)CC)NC(=O)[C@@H](NC(=O)[C@@H]2CCCN2C(=O)[C@H](Cc2ccccc2)NC(=O)[C@H](Cc2c[nH]cn2)NC(=O)[C@@H](NC(=O)[C@H](CC(=O)O)NC(=O)CC(C)C)[C@@H](C)O)CSSC[C@@H](C(=O)N[C@@H](CCCCN)C(N)=O)NC(=O)CN(C)C(=O)[C@H](CCCCN)NC(=O)[C@H](CO)NC(=O)[C@H](CCCNC(=N)N)NC(=O)[C@@H]2CCCN2C(=O)[C@H](CCC(=O)O)NC(=O)[C@H](Cc2ccccc2)NC1=O)C(=O)O` [Compound 28, Isovaleric acid-DTHFPCI-[Lys(isoGlu-Ahx-Palm)]-FEPRSK-[Sar]-CK-NH2] has a DC50 of 23 nM.
For `CCCCCCCCCCCC(=O)N[C@@H](CCC(=O)NCCCC[C@@H]1NC(=O)[C@H](Cc2ccccc2)NC(=O)[C@H](CCCCN)NC(=O)[C@H]([C@@H](C)CC)NC(=O)[C@@H](NC(=O)[C@@H]2CCCN2C(=O)[C@H](Cc2ccccc2)NC(=O)[C@H](Cc2c[nH]cn2)NC(=O)[C@@H](NC(=O)[C@H](CC(=O)O)NC(=O)CC(C)C)[C@@H](C)O)CSSC[C@@H](C(=O)N[C@@H](CCCCN)C(N)=O)NC(=O)CNC(=O)[C@H](CCCCN)NC(=O)[C@H](CO)NC(=O)[C@H](CCCNC(=N)N)NC(=O)[C@@H]2CCCN2C1=O)C(=O)O` [Compound 12], the DC50 was 14 nM.
In the case of `CCCCCCCCCCCCCCCC(=O)N[C@@H](CCC(=O)NCCCC[C@@H]1NC(=O)[C@H](Cc2ccccc2)NC(=O)[C@H](CCCCN)NC(=O)[C@H]([C@@H](C)CC)NC(=O)[C@@H](NC(=O)[C@@H]2CCCN2C(=O)[C@H](Cc2ccccc2)NC(=O)[C@H](Cc2c[nH]cn2)NC(=O)[C@@H](NC(=O)[C@H](CC(=O)O)NC(=O)CC(C)C)[C@@H](C)O)CSSC[C@@H](C(=O)N[C@@H](CCCCN)C(N)=O)NC(=O)CN(C)C(=O)[C@H](CCCCN)NC(=O)[C@H](CO)NC(=O)[C@H](CCCNC(=N)N)NC(=O)[C@@H]2CCCN2C1=O)C(=O)O` [Compound 6], the DC50 is reported as 11 nM.
Work on `CCCCCCCCCCCCCC(=O)N[C@@H](CCC(=O)NCCCC[C@@H]1NC(=O)[C@H](Cc2ccccc2)NC(=O)[C@H](CCCCN)NC(=O)[C@H]([C@@H](C)CC)NC(=O)[C@@H](NC(=O)[C@@H]2CCCN2C(=O)[C@H](Cc2ccccc2)NC(=O)[C@H](Cc2c[nH]cn2)NC(=O)[C@@H](NC(=O)[C@H](CC(=O)O)NC(=O)CC(C)C)[C@@H](C)O)CSSC[C@@H](C(=O)N[C@@H](CCCCN)C(N)=O)NC(=O)CNC(=O)[C@H](CCCCN)NC(=O)[C@H](CO)NC(=O)[C@H](CCCNC(=N)N)NC(=O)[C@@H]2CCCN2C1=O)C(=O)O` [Compound 13] yielded a DC50 of 10 nM.
Molecule `CCCCCCCCCCCCCCCC(=O)N[C@@H](CCC(=O)NCCCC[C@@H]1NC(=O)[C@H](Cc2ccccc2)NC(=O)[C@H](CCCCN)NC(=O)[C@H]([C@@H](C)CC)NC(=O)[C@@H](NC(=O)[C@@H]2CCCN2C(=O)[C@H](Cc2ccccc2)NC(=O)[C@H](Cc2c[nH]cn2)NC(=O)[C@@H](NC(=O)[C@H](CC(=O)O)NC(=O)CC(C)C)[C@@H](C)O)CSSC[C@@H](C(N)=O)NC(=O)CN(C)C(=O)[C@H](CCCCN)NC(=O)[C@H](CO)NC(=O)[C@H](CCCNC(=N)N)NC(=O)[C@@H]2CCCN2C1=O)C(=O)O` [Compound 10] has a DC50 of 10 nM.

Same assay, conditions: Table 9 reference compounds; ferroportin degradation; read-out: Potency EC50
Work on `CC[C@H](C)[C@H](NC(=O)[C@H](CS)NC(=O)[C@@H](NC(=O)[C@@H]1CCCN1C(=O)[C@H](Cc1ccccc1)NC(=O)[C@H](Cc1c[nH]cn1)NC(=O)[C@@H](NC(=O)[C@@H](N)CC(=O)O)[C@@H](C)O)[C@@H](C)CC)C(=O)N[C@@H](Cc1ccccc1)C(N)=O` [Mini-Hepcidin 1-9, reference compound] yielded an EC50 of 712 nM.
